# Assay results from patent publication US20080292760A1, “Semi-Solid Food Products and Methods For Their Production, Based on Inhibiting Amylase Starch Breakdown” (WAGENINGEN CENTRE FOR FOOD SCIENCES, priority 2004, published 2008).
# Target: T1, salivary amylase (Homo sapiens, UniProt P0DUB6)
# T1 construct: from tissue; host or cells: saliva in the mouths of the human panelists (in vivo)
# T1 sequence (P0DUB6 16-511): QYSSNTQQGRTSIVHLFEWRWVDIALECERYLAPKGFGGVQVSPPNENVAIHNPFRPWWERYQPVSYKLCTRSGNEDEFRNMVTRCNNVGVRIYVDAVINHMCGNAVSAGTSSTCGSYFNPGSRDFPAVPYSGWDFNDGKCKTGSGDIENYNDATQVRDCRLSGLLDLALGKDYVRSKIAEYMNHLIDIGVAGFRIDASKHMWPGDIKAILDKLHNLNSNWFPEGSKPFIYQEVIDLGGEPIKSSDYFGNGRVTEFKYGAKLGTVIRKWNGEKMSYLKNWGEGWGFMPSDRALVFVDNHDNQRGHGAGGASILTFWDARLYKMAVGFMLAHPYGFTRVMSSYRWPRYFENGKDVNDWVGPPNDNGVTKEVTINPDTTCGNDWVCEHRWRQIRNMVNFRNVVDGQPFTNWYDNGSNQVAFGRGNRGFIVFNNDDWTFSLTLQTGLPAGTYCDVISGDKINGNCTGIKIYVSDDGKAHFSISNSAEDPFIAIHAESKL
# Experiment: acarbose study: sensory rating of vanilla custard desserts with added acarbose
# Type: in vivo
# Settings: Creamex custard
# Method: The role of salivary amylase in modifying texture sensations was evaluated in the following examples, in which the level of amylase activity was varied within subjects, rather than between subjects. Alpha-amylase was added in varying concentrations to starch and CMC (non-starch)-based vanilla custard desserts. Additionally, amylase activity was inhibited to various degrees by adding the pharmaceutical amylase inhibitor Acarbose (CAS nr. 56180-94-0) in various concentrations to the same test foods.
# Eighteen subjects, 11 females and 7 males aged between 18 and 34 yrs, participated the ‘amylase study’ and 7 different subjects, all females aged between 39 and 56 yrs, participated in the ‘acarbose study’. The subjects participating in the latter study had been informed about acarbose and its possibly side effects if swallowed. To avoid these side effects, subjects expectorated rather than swallowed the acarbose samples. All subjects signed consent forms expressing their willingness to participate in the studies, and all had previously been screened for olfactory and taste disorders and had received extensive training in the description of sensory mouthfeel and afterfeel attributes for semi-solid foods. Testing took place at the sensory facilities of TNO-Nutrition and Food Research in Zeist, The Netherlands. […]
smiles,measurement,value
C[C@H]1O[C@H](O[C@H]2[C@H](O)[C@@H](O)[C@@H](O[C@H]3[C@H](O)[C@@H](O)C(O)O[C@@H]3CO)O[C@@H]2CO)[C@H](O)[C@@H](O)[C@@H]1N[C@H]1C=C(CO)[C@@H](O)[C@H](O)[C@H]1O (stereo partly shown) [Acarbose],increase of creamy mouthfeel,up to 59%
